Assay [1] deals with LPS-induced TNFα secretion in monocyte-derived macrophages (MdM). The assay is described as follows: MdM assay: LPS-triggered TNFα (ELISA). Type of assay: cell-based, human. To be noted: Homo sapiens, Macrophage, LPS-triggered TNFα inhibition. The procedure:
This assay evaluates illustrative compounds of the invention for their inhibition of LPS-induced TNFα and LPS triggered IL-10 secretion in monocyte-derived macrophages.
PBMCs are isolated from human blood samples (buffycoats). The buffy coat is aseptically transferred into a 50 mL Falcon tube, and diluted 1/2 in PBS. Falcon tubes are filled with 20 mL Lymphoprep™, on top of which 25 mL of the buffy coat is carefully added, tubes are centrifuged for 35 min at 400 g in temperature controlled centrifuge, without brake, at 25° C. PBMCs are aspirated from the white interface layer between sample and Lymphoprep™. PBMCs are washed five times in PBS.
PBMCs are centrifuged at 300×g for 10 min and resuspended at a density of 1.0E07 cells/80 μL Miltenyi buffer (PBS, pH 7.4, 1% FBS, 2 mM EDTA).
Starting from this point of the protocol all steps are performed on ice. 20 μL of CD14+ micro-beads are added per 1.0E07 cells, the tube is mixed and incubated for 15 min in the fridge at 4° C. Cell suspension volume is adjusted to total volume of 100 mL using Miltenyi buffer, mixed gently and subsequently centrifuged for 10 min at 300× g. Supernantant is discarded and cell pellet is resuspended in 12 mL of Miltenyi buffer.
Four LS columns are placed in the MACS Separator (magnet) from Miltenyi Biotec, and are prewet by rinsing with 3 mL of MACS buffer per column. Three mL of cell suspension is added onto the column (max 1*10^8 of labelled cells/column), and columns are subsequently washed 3 times with 3 mL of Miltenyi buffer.
The columns are removed from the magnets, and 5 mL of Miltenyi buffer are added to the column to flush out the CD14+ fraction by pushing the plunger into the column. The flushed fractions are collected in a fresh 50 mL Falcon and volume is adjusted to 30 mL using Miltenyi buffer, cells are centrifuged for 10 min at 300× g. The obtained cell pellet is resuspended in 10 mL RPMI w/o FBS, and cell density is determined using a hematologic analyser (Sysmex XS-500i).
On day 10, MdMs are triggered and compound is added.
A compound dilution plate is made in 100% DMSO by 3-fold dilution of 10 mM stock solution. An intermediate dilution plate (10× final concentration) is made by diluting the compound dilution plate 50-fold in RPMI medium.
Medium is carefully removed from cell plates using multichannel pipette, and replaced by 80 μL fresh medium. 10 μL of the 10× final concentration compound is added to the cells and incubated for 1 hour at 37° C. before addition of trigger. No trigger conditions/trigger conditions are spiked with equal final DMSO concentrations of 0.2% DMSO. 10 μL of 10×LPS (final conc. 200 ng/mL) solution are added to all wells except for the ‘no trigger wells’ where 10 μL medium is added. Supernatant is collected after 2 h (IL-10 determination) and after 20 h (TNFα determination) of LPS triggering.
The plate is then washed once with PBST (PBS+0.05% Tween20) and once with PBS followed by the addition of 100 μL of blocking buffer (1% Bovine Serum Albumin (BSA)-5% Sucrose) and plates are sealed and incubated for at least 4 h at RT. After washing the plate once with PBST and once with PBS, 40 μL of standard or sample are added (TNFα standard curve is prepared using a 1/2 serial dilution starting from 16000 pg/mL; dilutions are made in dilution buffer (PBS+1% BSA)). Plates are washed twice with PBST, and once with PBS, after which 35 μL of the detection antibody is added (final concentration 0.25 μg/mL diluted in dilution buffer) and plates are incubated for at least 2 h at RT. Plates are washed twice with PBST, and once with PBS, where after 35 μL of Strep-HRP conjugate (0.5 μg/mL final concentration diluted in dilution buffer) is added. Plates are incubated in the dark, at RT for at least 45 min but no longer than 1 hour. Plates are washed twice with PBST, and once with PBS.

The target in assay [2] is T1, SIK1 (Homo sapiens, UniProt P57059).
T1 construct: purchased Carna Biosciences 02-131
T1 sequence (P57059 whole entry): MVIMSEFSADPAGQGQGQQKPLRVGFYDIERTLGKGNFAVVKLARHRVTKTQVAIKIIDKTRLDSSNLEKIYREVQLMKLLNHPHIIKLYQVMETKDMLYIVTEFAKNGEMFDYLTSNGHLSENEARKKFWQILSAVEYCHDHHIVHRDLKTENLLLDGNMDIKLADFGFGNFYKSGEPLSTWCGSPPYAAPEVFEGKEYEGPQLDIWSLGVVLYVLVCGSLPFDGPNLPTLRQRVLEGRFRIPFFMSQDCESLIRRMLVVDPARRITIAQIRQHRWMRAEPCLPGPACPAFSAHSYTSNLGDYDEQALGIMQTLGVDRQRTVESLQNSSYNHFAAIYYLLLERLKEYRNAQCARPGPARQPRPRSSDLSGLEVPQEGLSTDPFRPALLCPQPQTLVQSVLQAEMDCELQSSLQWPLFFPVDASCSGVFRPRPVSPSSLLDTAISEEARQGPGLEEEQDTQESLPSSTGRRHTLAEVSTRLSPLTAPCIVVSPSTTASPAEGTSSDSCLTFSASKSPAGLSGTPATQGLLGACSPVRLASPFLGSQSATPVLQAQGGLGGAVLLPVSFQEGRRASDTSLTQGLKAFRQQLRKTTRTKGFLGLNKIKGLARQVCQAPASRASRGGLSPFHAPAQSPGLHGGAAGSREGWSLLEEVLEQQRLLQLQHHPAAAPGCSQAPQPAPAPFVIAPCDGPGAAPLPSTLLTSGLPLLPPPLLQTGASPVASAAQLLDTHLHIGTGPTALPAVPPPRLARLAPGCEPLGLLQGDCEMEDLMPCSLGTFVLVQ
The assay can be described thus: biochemical. To be noted: 33P radioactive SIK kinase assay, AMARA peptide, 10 μM ATP; read-out: SIK1 IC50. The gist of the method: (§1)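 Read-out: ^33P incorporated into AMARA peptide, counted on filter plates, taken as kinase activity. Reactions start on addition of labeled/unlabeled ATP to enzyme plus substrate and end with phosphoric acid. Controls: 1% DMSO (negative) and 10 μM staurosporine (positive), final.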

The target in assay [3] is T2, SIK3 (Homo sapiens, UniProt Q9Y2K2).
T2 construct: purchased SignalChem S12-11G-100
T2 sequence (Q9Y2K2 whole entry): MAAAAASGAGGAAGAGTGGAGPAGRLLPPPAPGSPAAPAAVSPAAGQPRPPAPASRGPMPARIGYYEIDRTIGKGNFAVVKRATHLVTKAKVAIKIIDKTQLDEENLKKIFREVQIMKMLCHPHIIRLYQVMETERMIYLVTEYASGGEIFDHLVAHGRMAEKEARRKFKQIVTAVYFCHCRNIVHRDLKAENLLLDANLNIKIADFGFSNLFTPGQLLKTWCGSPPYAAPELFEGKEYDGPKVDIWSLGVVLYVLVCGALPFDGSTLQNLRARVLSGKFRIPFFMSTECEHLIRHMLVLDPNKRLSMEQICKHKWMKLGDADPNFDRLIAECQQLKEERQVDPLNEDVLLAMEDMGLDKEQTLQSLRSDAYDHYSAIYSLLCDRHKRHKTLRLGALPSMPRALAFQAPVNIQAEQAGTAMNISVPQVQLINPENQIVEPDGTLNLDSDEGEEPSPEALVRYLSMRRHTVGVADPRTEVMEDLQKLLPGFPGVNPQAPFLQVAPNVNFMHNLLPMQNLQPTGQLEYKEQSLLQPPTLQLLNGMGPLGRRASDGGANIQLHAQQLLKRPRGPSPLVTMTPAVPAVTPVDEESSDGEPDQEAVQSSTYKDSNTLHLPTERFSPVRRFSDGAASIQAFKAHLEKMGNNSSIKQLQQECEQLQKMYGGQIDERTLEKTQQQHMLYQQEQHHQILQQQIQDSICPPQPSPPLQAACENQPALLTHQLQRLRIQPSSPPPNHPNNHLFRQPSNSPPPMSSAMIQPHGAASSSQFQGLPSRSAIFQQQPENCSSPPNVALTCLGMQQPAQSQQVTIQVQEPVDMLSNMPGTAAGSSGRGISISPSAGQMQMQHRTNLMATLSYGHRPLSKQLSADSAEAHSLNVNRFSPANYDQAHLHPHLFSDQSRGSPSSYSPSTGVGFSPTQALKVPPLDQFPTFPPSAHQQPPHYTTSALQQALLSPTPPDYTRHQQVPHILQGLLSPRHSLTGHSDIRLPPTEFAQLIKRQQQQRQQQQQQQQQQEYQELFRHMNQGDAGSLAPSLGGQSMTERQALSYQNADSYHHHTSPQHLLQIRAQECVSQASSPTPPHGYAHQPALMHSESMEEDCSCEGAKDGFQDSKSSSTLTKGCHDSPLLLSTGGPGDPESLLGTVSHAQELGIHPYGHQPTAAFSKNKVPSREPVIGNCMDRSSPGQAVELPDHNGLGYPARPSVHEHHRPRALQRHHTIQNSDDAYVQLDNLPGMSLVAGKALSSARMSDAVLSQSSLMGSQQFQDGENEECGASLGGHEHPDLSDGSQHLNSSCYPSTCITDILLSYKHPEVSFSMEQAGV
The assay is described as follows: biochemical. The method, boiled down: as §1

In assay [4] the target is T3, SIK2 (Homo sapiens, UniProt Q9H0K1).
T3 construct: purchased ThermoFisher Scientific PV4792
T3 sequence (Q9H0K1 whole entry): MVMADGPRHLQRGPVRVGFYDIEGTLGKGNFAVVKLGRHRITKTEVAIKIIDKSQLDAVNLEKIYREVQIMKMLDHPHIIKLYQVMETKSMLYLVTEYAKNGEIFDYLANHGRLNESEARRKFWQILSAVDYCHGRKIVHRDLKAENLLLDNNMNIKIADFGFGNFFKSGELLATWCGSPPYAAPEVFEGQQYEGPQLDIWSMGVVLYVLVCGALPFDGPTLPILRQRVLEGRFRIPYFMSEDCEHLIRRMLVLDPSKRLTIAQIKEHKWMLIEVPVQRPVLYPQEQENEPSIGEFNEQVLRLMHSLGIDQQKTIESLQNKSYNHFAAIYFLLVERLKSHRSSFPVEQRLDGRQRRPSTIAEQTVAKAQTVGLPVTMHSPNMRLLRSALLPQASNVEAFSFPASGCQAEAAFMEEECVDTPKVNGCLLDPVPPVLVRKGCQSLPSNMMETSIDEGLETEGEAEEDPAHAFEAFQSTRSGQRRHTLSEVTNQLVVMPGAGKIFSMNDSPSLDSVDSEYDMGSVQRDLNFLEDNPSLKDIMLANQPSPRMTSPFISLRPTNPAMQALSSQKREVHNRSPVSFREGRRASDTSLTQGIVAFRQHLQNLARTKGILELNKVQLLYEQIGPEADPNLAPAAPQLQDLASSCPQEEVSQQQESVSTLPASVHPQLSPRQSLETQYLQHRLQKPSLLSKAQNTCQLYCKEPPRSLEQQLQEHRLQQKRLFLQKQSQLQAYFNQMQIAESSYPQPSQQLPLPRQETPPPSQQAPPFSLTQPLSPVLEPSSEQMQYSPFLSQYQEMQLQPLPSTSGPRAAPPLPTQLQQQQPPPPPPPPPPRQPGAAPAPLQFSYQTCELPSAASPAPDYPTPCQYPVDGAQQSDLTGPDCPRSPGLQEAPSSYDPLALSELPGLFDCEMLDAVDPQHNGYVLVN
The assay can be described thus: biochemical. To be noted: 33P radioactive SIK kinase assay, AMARA peptide, 10 μM ATP. The gist of the method: as §1

A value given as a limit tells only on which side of the number the result lay.

Regarding `COc1cc(-c2cnc3cc(-c4cnn(CC(=O)OC(C)C)c4)ccn23)cc(OC)c1C(=O)NCC(F)(F)F` [Cpd 231, isopropyl 2-[4-[3-[3,5-dimethoxy-4-(2,2,2-trifluoroethyl-carbamoyl)phenyl]imidazo[1,2-a]pyridin-7-yl]pyrazol-1-yl]acetate], the 50% effective concentration (EC50) (usually the concentration giving half of the maximal effect) in assay [1] fell in the range of 0.1 to 100 nM. Moreover, the IC50 in assay [2], in assay [3] and in assay [4] was 0.01 to 10 nM throughout.

Regarding `COc1cc(-c2cnc3cc(-c4cnn(C)c4)ccn23)cc(O)c1C(=O)NCC(F)(F)F` [Cpd 233, 2-hydroxy-6-methoxy-4-[7-(1-methylpyrazol-4-yl)imidazo[1,2-a]pvridin-3-yl]-N-(2,2,2-trifluoroethyl)benzamide], in assay [1], the EC50 was 0.1 to 100 nM. Further, the IC50 (as a rule, the point on the concentration scale where inhibition reaches its midpoint) in assay [2] lay in the range of 10 to 100 nM; in assay [3], 0.01 to 10 nM; in assay [4] it was 0.01 to 10 nM.

Take `COc1cc(-c2cnc3cc(-c4cnn(CC(=O)OCCF)c4)ccn23)cc(OC)c1C(=O)NCC(F)(F)F` [Cpd 235, 2-fluoroethyl 2-[4-[3-[3,5-dimethoxy-4-(2,2,2-trifluoroethyl-carbamoyl)phenyl]imidazo[1,2-a]pyridin-7-yl]pyrazol-1-yl]acetate]: the EC50 in assay [1] was 0.1 to 100 nM. Also, the IC50 in assay [2], in assay [3] and in assay [4] was 0.01 to 10 nM each time.

The compound `COC(=O)Cn1cc(-c2ccn3c(-c4cc(OC)c(C(=O)NCC(F)(F)F)c(OC)c4)cnc3c2)cn1` [Cpd 236, methyl 2-[4-[3-[3,5-dimethoxy-4-(2,2,2-trifluoroethyl-carbamoyl)phenyl]imidazo[1,2-a]pyridin-7-yl]pyrazol-1-yl]acetate] displayed a half-maximal effective concentration (EC50) in assay [1] of 0.1 to 100 nM. Also, the IC50 in assay [2], in assay [3] and in assay [4] was 0.01 to 10 nM throughout.

`COc1cc(-c2cnc3cc(-c4cnn(CC(=O)OC5CCOC5)c4)ccn23)cc(OC)c1C(=O)NCC(F)(F)F` (stereo not shown) [Cpd 237, tetrahydrofuran-3-yl 2-[4-[3-[3,5-dimethoxy-4-(2,2,2-trifluoroethyl-carbamoyl)phenyl]imidazo[1,2-a]pyridin-7-yl]pyrazol-1-yl]acetate] showed an EC50 in assay [1] of 100 to 1000 nM. Besides, the IC50 in assay [2], in assay [3] and in assay [4] was 0.01 to 10 nM each time.

In turn, `COc1cc(-c2cnc3cc(-c4cnn(CC(=O)OCC5CCC5)c4)ccn23)cc(OC)c1C(=O)NCC(F)(F)F` [Cpd 238, cyclobutylmethyl 2-[4-[3-[3,5-dimethoxy-4-(2,2,2-trifluoroethyl-carbamoyl)phenyl]imidazo[1,2-a]pyridin-7-yl]pyrazol-1-yl]acetate] displayed an EC50 in assay [1] of 0.1 to 100 nM. Moreover, the IC50 in assay [2], in assay [3] and in assay [4] was 0.01 to 10 nM throughout.

`COc1cc(-c2cnc3cc(-c4cnn(C(C)C(=O)O)c4)ccn23)cc(OC)c1C(=O)NCC(F)(F)F` (stereo not shown) [Cpd 254, 2-[4-[3-[3,5-dimethoxy-4-(2,2,2-trifluoroethyl-carbamoyl)phenyl]imidazo[1,2-a]pyridin-7-yl]pyrazol-1-yl]propanoic acid]: the EC50 in assay [1] was above 5000 nM. Moreover, the concentration for half-maximal inhibition (IC50) in assay [2], in assay [3] and in assay [4] was 0.01 to 10 nM in each case.

Turning to `COc1cc(-c2cnc3cc(-c4cnn(CCCC(=O)O)c4)ccn23)cc(OC)c1C(=O)NCC(F)(F)F` [Cpd 255, 4-[4-[3-[3,5-dimethoxy-4-(2,2,2-trifluoroethyl-carbamoyl)phenyl]imidazo[1,2-a]pyridin-7-yl]pyrazol-1-yl]butanoic acid], the EC50 in assay [1] fell in the range of 1000 to 5000 nM. The IC50 in assay [2], in assay [3] and in assay [4] was 0.01 to 10 nM throughout.

For `CCNC(=O)c1c(OC)cc(-n2cnc3cc(-c4cccnc4)ccc32)cc1OC` [compound 2, N-ethyl-2,6-dimethoxy-4-[5-(3-pyridyl)benzimidazol-1-yl]benzamide], the EC50 in assay [1] lay within 1000 to 5000 nM. Moreover, the IC50 in assay [2] lay within 100 to 500 nM; in assay [3], 10 to 100 nM; in assay [4], 100 to 500 nM.

In assay [1], `CCn1cc(-c2cnc3c(-c4cc(OC)c(C(=O)NCC(F)F)c(OC)c4)cnn3c2)cn1` [compound 21, N-(2,2-difluoroethyl)-4-[6-(1-ethylpyrazol-4-yl)pyrazolo[1,5-a]pyrimidin-3-yl]-2,6-dimethoxy-benzamide] had an EC50 of 100 to 1000 nM. Moreover, the IC50 in assay [2] is 10 to 100 nM; in assay [3], 0.01 to 10 nM; in assay [4], 0.01 to 10 nM.

`CCn1cc(-c2ccc3c(c2)ncn3-c2cc(OC)c(C(=O)NC3CCC3)c(OC)c2)cn1` [compound 26, N-cyclobutyl-4-[5-(1-ethylpyrazol-4-yl)benzimidazol-1-yl]-2,6-dimethoxy-benzamide] showed an EC50 in assay [1] of 100 to 1000 nM. Moreover, the 50% inhibitory concentration (IC50) in assay [2], in assay [3] and in assay [4] was 10 to 100 nM throughout.

With `COc1cc(-n2cnc3cc(-c4ccc(N5CCOCC5)nc4)ccc32)cc(OC)c1C(=O)NCC(F)(F)F` [compound 32, 2,6-dimethoxy-4-[5-(6-morpholino-3-pyridyl)benzimidazol-1-yl]-N-(2,2,2-trifluoroethyl)benzamide], the EC50 in assay [1] was in the range of 100 to 1000 nM. For the same compound, the IC50 in assay [2], in assay [3] and in assay [4] was 10 to 100 nM throughout.

The compound `COc1cc(-n2cnc3cc(-c4ccc(N5CCCC5)nc4)ccc32)cc(OC)c1C(=O)NCC(F)(F)F` [compound 34, 2,6-dimethoxy-4-[5-(6-pyrrolidin-1-yl-3-pyridyl)benzimidazol-1-yl]-N-(2,2,2-trifluoroethyl)benzamide] gave an EC50 in assay [1] of 100 to 1000 nM. In addition, the IC50 in assay [2] was in the range of 10 to 100 nM; in assay [3] it was 10 to 100 nM; in assay [4] it was 0.01 to 10 nM.

In assay [1], `COc1cc(-n2cnc3cc(-c4cnn(C5CCNCC5)c4)ccc32)cc(OC)c1C(=O)NCC(F)(F)F` [compound 42, 2,6-dimethoxy-4-[5-[1-(4-piperidyl)pyrazol-4-yl]benzimidazol-1-yl]-N-(2,2,2-trifluoroethyl)benzamide] gave an EC50 of 100 to 1000 nM. Moreover, the IC50 in assay [2], in assay [3] and in assay [4] was 0.01 to 10 nM in each case.

The compound `CCn1cc(-c2ccc3c(c2)ncn3-c2cc(OC)c(C(=O)NCCC(F)(F)F)c(OC)c2)cn1` [compound 44, 4-[5-(1-ethylpyrazol-4-yl)benzimidazol-1-yl]-2,6-dimethoxy-N-(3,3,3-trifluoropropyl)benzamide] returned an EC50 in assay [1] of 100 to 1000 nM. For the same compound, the IC50 in assay [2], in assay [3] and in assay [4] was 10 to 100 nM in each case.

`COc1cc(-n2cnc3cc(-c4cnn(C)c4)ccc32)cc(OC)c1C(=O)N[C@H](C)C(F)(F)F` [compound 58, 2,6-dimethoxy-4-[5-(1-methylpyrazol-4-yl)benzimidazol-1-yl]-N-[(1R)-2,2,2-trifluoro-1-methyl-ethyl]benzamide] came in with a 50% effective concentration (EC50) in assay [1] of 100 to 1000 nM. The IC50 in assay [2], in assay [3] and in assay [4] was 10 to 100 nM in each case.

The record behind these values is patent publication US12065443B2, “Compounds and pharmaceutical compositions thereof for the treatment of diseases” (priority 2017, dated 2024).
